One experiment concerns the target T1, K-Ras G12D (Homo sapiens, UniProt P01116, G12D).
T1 construct: made in house; host or cells: E. coli BL21 (DE3)
Nature of the experiment: HTRF resonance energy transfer assay, K-Ras G12D / SOS1 interaction. The format is biochemical. The note with it: HTRF assay of Example 5; read-out: IC50 against K-Ras G12D. In short, it runs like this:
(§1)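 Buffer about 5 mM HEPES pH 7.4 with ~150 mM NaCl, ~1 mM DTT, 0.05% BSA, 0.0025% (v/v) Igepal. Protein constructs used at molarity matching the IC50 range studied (e.g. ~500 nM). FRET between tagged K-Ras and hSOS1 measured after short incubation.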
(In TR-FRET formats the signal depends on donor and acceptor labels being close together.)

In a further experiment the target is T2, K-Ras G12S (Homo sapiens, UniProt P01116, G12S).
T2 construct: made in house; host or cells: E. coli BL21 (DE3)
T2 sequence (P01116 1-188 isoform P01116-2 G12S): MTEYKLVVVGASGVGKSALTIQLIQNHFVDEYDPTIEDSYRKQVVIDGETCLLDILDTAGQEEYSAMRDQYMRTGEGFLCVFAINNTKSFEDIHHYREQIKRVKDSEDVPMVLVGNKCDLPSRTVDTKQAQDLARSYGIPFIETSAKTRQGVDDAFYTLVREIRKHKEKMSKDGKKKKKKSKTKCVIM
The experiment in a line: HTRF resonance energy transfer assay, K-Ras G12S / SOS1 interaction. The format is biochemical. The conditions noted are these: HTRF assay of Example 5; read-out: IC50 against K-Ras G12S. The method in brief: as §1

The target in a further experiment is T3, K-Ras G12V (Homo sapiens, UniProt P01116, G12V).
T3 construct: made in house; host or cells: E. coli BL21 (DE3)
T3 sequence (P01116 1-188 isoform P01116-2 G12V): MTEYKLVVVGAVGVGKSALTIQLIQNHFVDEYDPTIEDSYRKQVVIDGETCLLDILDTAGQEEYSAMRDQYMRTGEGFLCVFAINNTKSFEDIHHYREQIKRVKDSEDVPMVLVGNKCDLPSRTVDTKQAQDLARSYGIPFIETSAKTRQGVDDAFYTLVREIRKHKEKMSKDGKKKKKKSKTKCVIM
Nature of the experiment: HTRF resonance energy transfer assay, K-Ras G12V / SOS1 interaction. The class given is biochemical. The conditions noted are these: HTRF assay of Example 5; read-out: IC50 against K-Ras G12V. In short, it runs like this: as §1

The next experiment deals with T4, K-Ras WT (Homo sapiens, UniProt P01116).
T4 construct: made in house; host or cells: E. coli BL21 (DE3)
T4 sequence (P01116 1-188 isoform P01116-2): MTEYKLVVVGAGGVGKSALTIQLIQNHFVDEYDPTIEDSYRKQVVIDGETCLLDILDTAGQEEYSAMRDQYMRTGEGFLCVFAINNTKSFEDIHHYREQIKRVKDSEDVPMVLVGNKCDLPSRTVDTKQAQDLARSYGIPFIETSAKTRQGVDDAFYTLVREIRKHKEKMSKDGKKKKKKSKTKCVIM
The experiment in a line: HTRF resonance energy transfer assay, K-Ras WT / SOS1 interaction. The format is biochemical. The conditions noted are these: HTRF assay of Example 5; read-out: IC50 against K-Ras WT. In short, it runs like this: as §1

The test system of the next experiment is GP2D cells. Nature of the experiment: Ras cellular assay, growth of cells with K-Ras G12D mutation (CellTiter-Glo). The conditions noted are these: cell growth, Example 9, G12D mutation, read-out: IC50 against GP2D cells. The format is cell-based. For orientation: Cellular ATP, detected with luciferase, serves as a proxy for viable cell number.
The test system of a further experiment is A549 cells. Nature of the experiment: Ras cellular assay, growth of cells with K-Ras G12S mutation (CellTiter-Glo). The class given is cell-based. The conditions noted are these: Homo sapiens, cell growth, Example 9, G12S mutation, read-out: IC50 against A549 cells. The method in brief:
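Growth inhibition IC50 values come from four-parameter fits of CellTiter-Glo luminescence, read about 6 days after compound addition. G12S-mutant A549 cells (e.g. 800/well, RPMI-1640 + 10% heat-inactivated FBS) were plated in tissue-culture-treated or ultra-low-attachment 384-well format. Dosing began the following day with serial dilutions, e.g. 10 points, 3-fold.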

The next experiment deals with SW620 cells. The experiment in a line: Ras cellular assay, growth of cells with K-Ras G12V mutation (CellTiter-Glo). The class given is cell-based. The conditions noted are these: Homo sapiens, SW-620; cell growth, Example 9, G12V mutation; read-out: IC50 against SW620 cells. In short, it runs like this: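 IC50 values came from a four-parameter fit of CellTiter-Glo viability, read roughly 6 days after dosing with e.g. a 10-point threefold dilution series. G12V-mutant SW620 cells (e.g. 800 per well) had been plated the previous day in RPMI-1640/10% heat-inactivated FBS, on tissue culture-treated or ultra-low attachment plates.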

T1 sequence (P01116 1-188 isoform P01116-2 G12D): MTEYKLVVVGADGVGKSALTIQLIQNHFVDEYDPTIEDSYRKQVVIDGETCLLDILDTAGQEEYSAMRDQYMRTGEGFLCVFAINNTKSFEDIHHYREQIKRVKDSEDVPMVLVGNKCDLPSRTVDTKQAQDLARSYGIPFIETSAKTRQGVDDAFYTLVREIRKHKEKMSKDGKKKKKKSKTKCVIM

With `N#Cc1c(N)sc2c(F)ccc(-c3c(Cl)c4c5c(nc(OC[C@@]67CCCN6C[C@H](F)C7)nc5c3F)N(C3(C(F)F)CC3)CCO4)c12` [Compound 1060, 2-amino-4-(8-chloro-4-(1-(difluoromethyl)cyclopropyl)-10-fluoro-2-(((2R,7aS)-2-fluorotetrahydro-1H-pyrrolizin-7a(5H)-yl)methoxy)-5,6-dihydro-4H-[1,4]oxazepino[5,6,7-de]quinazolin-9-yl)-7-fluorobenzo[b]thiophene-3-carbonitrile], the half-inhibitory concentration (IC50) was less than 100 nM on K-Ras G12D; less than 100 nM at K-Ras G12S; less than 100 nM at K-Ras G12V; less than 100 nM at K-Ras WT; less than 500 nM with GP2D cells; less than 5000 nM in the experiment with A549 cells. Also, the IC50 in the experiment on SW620 cells is less than 5000 nM.

`COCCN1CCOc2c(Cl)c(-c3ccc(F)c4sc(N)c(C#N)c34)c(F)c3nc(OC[C@@]45CCCN4C[C@H](F)C5)nc1c23` [Compound 1061, 2-amino-4-(8-chloro-10-fluoro-2-(((2R,7aS)-2-fluorotetrahydro-1H-pyrrolizin-7a(5H)-yl)methoxy)-4-(2-methoxyethyl)-5,6-dihydro-4H-[1,4]oxazepino[5,6,7-de]quinazolin-9-yl)-7-fluorobenzo[b]thiophene-3-carbonitrile]: the IC50 on K-Ras G12D is less than 100 nM; at K-Ras G12S, less than 100 nM; on K-Ras G12V it was less than 100 nM; at K-Ras WT, less than 100 nM; in the experiment on GP2D cells it was less than 500 nM; with A549 cells, less than 5000 nM. In the experiment on SW620 cells, the IC50 was less than 5000 nM.

For `CN(C)C1(CN2CCOc3c(Cl)c(-c4ccc(F)c5sc(N)c(C#N)c45)c(F)c4nc(OC[C@@]56CCCN5C[C@H](F)C6)nc2c34)CCCC1` [Compound 1062, 2-amino-4-(8-chloro-4-((1-(dimethylamino)cyclopentyl)methyl)-10-fluoro-2-(((2R,7aS)-2-fluorotetrahydro-1H-pyrrolizin-7a(5H)-yl)methoxy)-5,6-dihydro-4H-[1,4]oxazepino[5,6,7-de]quinazolin-9-yl)-7-fluorobenzo[b]thiophene-3-carbonitrile], the 50% inhibitory concentration (IC50) at K-Ras G12D was less than 100 nM; on K-Ras G12S, less than 100 nM; on K-Ras G12V it was less than 100 nM; on K-Ras WT it was less than 100 nM; in the experiment with GP2D cells it was less than 500 nM; in the experiment with A549 cells it was less than 5000 nM. For the same compound, the IC50 in the experiment on SW620 cells is less than 5000 nM.

In the case of `N#Cc1c(N)sc2c(F)ccc(-c3c(Cl)c4c5c(nc(OC[C@@]67CCCN6C[C@H](F)C7)nc5c3F)N(C3CCN(C(=O)C5CCO5)C3)CCO4)c12` (stereo partly drawn) [Compound 1064, 2-amino-4-(8-chloro-10-fluoro-2-(((2R,7aS)-2-fluorotetrahydro-1H-pyrrolizin-7a(5H)-yl)methoxy)-4-(1-(oxetane-2-carbonyl)pyrrolidin-3-yl)-5,6-dihydro-4H-[1,4]oxazepino[5,6,7-de]quinazolin-9-yl)-7-fluorobenzo[b]thiophene-3-carbonitrile], the IC50 was less than 100 nM at K-Ras G12D; less than 100 nM on K-Ras G12S; less than 100 nM at K-Ras G12V; less than 100 nM on K-Ras WT; less than 500 nM in the experiment with GP2D cells; less than 5000 nM with A549 cells. Also, the half-inhibitory concentration (IC50) with SW620 cells is less than 5000 nM.

In the case of `C[C@@H](O)[C@H]1COc2c(Cl)c(-c3ccc(F)c4sc(N)c(C#N)c34)c(F)c3nc(OC[C@@]45CCCN4C[C@H](F)C5)nc(c23)N1CC(F)F` [Compound 1080, 2-amino-4-((5R)-8-chloro-4-(2,2-difluoroethyl)-10-fluoro-2-(((2R,7aS)-2-fluorotetrahydro-1H-pyrrolizin-7a(5H)-yl)methoxy)-5-((R)-1-hydroxyethyl)-5,6-dihydro-4H-[1,4]oxazepino[5,6,7-de]quinazolin-9-yl)-7-fluorobenzo[b]thiophene-3-carbonitrile], the IC50 on K-Ras G12D was less than 100 nM; at K-Ras G12S, less than 100 nM; on K-Ras G12V it was less than 100 nM; at K-Ras WT, less than 100 nM; with GP2D cells, less than 500 nM; in the experiment on A549 cells, less than 5000 nM. For the same compound, the IC50 with SW620 cells was less than 5000 nM.

In the case of `N#Cc1c(N)sc2c(F)ccc(-c3c(Cl)c4c5c(nc(OC[C@@]67CCCN6C[C@H](F)C7)nc5c3F)N([C@H]3CCN(C=O)C3)CCO4)c12` [Compound 1095, 2-amino-4-(8-chloro-10-fluoro-2-(((2R,7aS)-2-fluorotetrahydro-1H-pyrrolizin-7a(5H)-yl)methoxy)-4-((S)-1-formylpyrrolidin-3-yl)-5,6-dihydro-4H-[1,4]oxazepino[5,6,7-de]quinazolin-9-yl)-7-fluorobenzo[b]thiophene-3-carbonitrile], the concentration for half-maximal inhibition (IC50) on K-Ras G12D was less than 100 nM; on K-Ras G12S, less than 100 nM; at K-Ras G12V, less than 100 nM; at K-Ras WT, less than 100 nM; with GP2D cells, less than 500 nM; in the experiment with A549 cells, less than 5000 nM. The half-inhibitory concentration (IC50) in the experiment on SW620 cells was less than 5000 nM.

Turning to `CC(F)(F)CN1CCOc2c(Cl)c(-c3ccc(F)c4sc(N)c(C#N)c34)c(F)c3nc(OC[C@@]45CCCN4C[C@H](F)C5)nc1c23` [Compound 1108, 2-amino-4-(8-chloro-4-(2,2-difluoropropyl)-10-fluoro-2-(((2R,7aS)-2-fluorotetrahydro-1H-pyrrolizin-7a(5H)-yl)methoxy)-5,6-dihydro-4H-[1,4]oxazepino[5,6,7-de]quinazolin-9-yl)-7-fluorobenzo[b]thiophene-3-carbonitrile], the concentration for half-maximal inhibition (IC50) at K-Ras G12D is less than 100 nM; on K-Ras G12S, less than 100 nM; at K-Ras G12V it was less than 100 nM; on K-Ras WT, less than 100 nM; in the experiment with GP2D cells, less than 500 nM; in the experiment with A549 cells, less than 5000 nM. The IC50 in the experiment on SW620 cells is less than 5000 nM.

As to `CO[C@H](C)C(=O)N1CCC(N2CCOc3c(Cl)c(-c4ccc(F)c5sc(N)c(C#N)c45)c(F)c4nc(OC[C@@]56CCCN5C[C@H](F)C6)nc2c34)C1` (stereo partly drawn) [Compound 1110, 2-amino-4-(8-chloro-10-fluoro-2-(((2R,7aS)-2-fluorotetrahydro-1H-pyrrolizin-7a(5H)-yl)methoxy)-4-(1-((R)-2-methoxypropanoyl)pyrrolidin-3-yl)-5,6-dihydro-4H-[1,4]oxazepino[5,6,7-de]quinazolin-9-yl)-7-fluorobenzo[b]thiophene-3-carbonitrile], the concentration for half-maximal inhibition (IC50) at K-Ras G12D is less than 100 nM; at K-Ras G12S, less than 100 nM; on K-Ras G12V it was less than 100 nM; on K-Ras WT, less than 100 nM; in the experiment on GP2D cells, less than 500 nM; with A549 cells, less than 5000 nM. In addition, in the experiment with SW620 cells, the half-maximal inhibitory concentration (IC50) is less than 5000 nM.

`CN1c2nc(OC[C@@]34CCCN3C[C@H](F)C4)nc3c(F)c(-c4ccc(F)c5sc(N)c(C#N)c45)c(Cl)c(c23)OC[C@@H]1CN` [Compound 1113, 2-amino-4-((5S)-5-(aminomethyl)-8-chloro-10-fluoro-2-(((2R,7aS)-2-fluorotetrahydro-1H-pyrrolizin-7a(5H)-yl)methoxy)-4-methyl-5,6-dihydro-4H-[1,4]oxazepino[5,6,7-de]quinazolin-9-yl)-7-fluorobenzo[b]thiophene-3-carbonitrile]: the IC50 at K-Ras G12D is less than 100 nM; on K-Ras G12S, less than 100 nM; on K-Ras G12V, less than 100 nM; at K-Ras WT, less than 100 nM; in the experiment on GP2D cells, less than 500 nM; in the experiment on A549 cells, less than 5000 nM. Further, the IC50 in the experiment on SW620 cells is less than 5000 nM.

On to `N#Cc1c(N)sc2c(F)ccc(-c3c(Cl)c4c5c(nc(OC[C@@]67CCCN6C[C@H](F)C7)nc5c3F)N(C3CCC5(C3)CN(C(=O)CC3COC3)C5)CCO4)c12` (stereo partly drawn) [Compound 1115, 2-amino-4-(8-chloro-10-fluoro-2-(((2R,7aS)-2-fluorotetrahydro-1H-pyrrolizin-7a(5H)-yl)methoxy)-4-(2-(2-(oxetan-3-yl)acetyl)-2-azaspiro[3.4]octan-6-yl)-5,6-dihydro-4H-[1,4]oxazepino[5,6,7-de]quinazolin-9-yl)-7-fluorobenzo[b]thiophene-3-carbonitrile], for which the half-inhibitory concentration (IC50) is less than 100 nM at K-Ras G12D; less than 100 nM on K-Ras G12S; less than 100 nM on K-Ras G12V; less than 100 nM at K-Ras WT; less than 500 nM in the experiment on GP2D cells; less than 5000 nM with A549 cells. In addition, in the experiment on SW620 cells, the IC50 is less than 5000 nM.

A word on the IC50: it is the point on the concentration scale where inhibition reaches its midpoint.

The values are drawn from patent US12209102B2, “Heterocyclic compounds and uses thereof” (Kumquat Biosciences Inc., priority 2022, dated 2025).
